Experimental findings from patent publication US20040235900A1, “Antimicrobial oxazolifinones with improved pharmacokinetic profile and safety advantages” (priority 2002, published 2004) are described below.

≈ marks a conversion by molar mass, not a printed value.

The subject of data set [1] is Methicillin Resistant Staphylococcus aureus MRSA-32. As to the kind of experiment: In-vitro MIC test (agar dilution), MRSA-32. The data set is classed as cell-based. As to conditions: Staphylococcus aureus, MRSA; Mueller Hinton agar, 24 hrs at 35° C.; read-out: Minimum Inhibitory Concentrations (MIC) MRSA-32. An excerpt: The test methods used for verifying the antimicrobial action of compound within the scope of this invention are essentially the same as those described in PCT WO 95/25106, U.S. Pat. No. 5,668,286 and EP 0 750, 618 B1, with the difference that the strains of the organisms used for the MIC determinations in these patents and applications are Staphylococcus aureus ATCC 25923, Staphylococcus epidermidis ATCC 12828, Streptococcus pyogenes ATCC 19615.
The in-vitro MIC methods of test compounds were determined essentially as described in PCT WO 95/25106, U.S. Pat. No. 5,668,286 and EP 0 750 618 B1.
Overnight grown cultures of S. aureus organisms in Tryptic Soya broth were diluted in Mueller Hinton Broth to give optical density matching with MacFarland tube 0.5 standard. Cultures were further diluted 1:10 in Mueller Hinton broth. Using Denley's mutipoint inoculator, 10^4 cells were deposited on Mueller Hinton agar (Difco) containing range of 2 fold dilutions of test compounds. These plates were incubated for 24 hrs at 35° C. and MIC results recorded. MIC is defined as minimum drug concentration that inhibits test organisms. For determining MIC of test compounds against Streptococcus pneumoniae, Mueller Hinton agar containing 5% sheep blood was employed.

Data set [2] is described as follows: Myelosuppressive potential: spleen and thymus relative weights, 14-day oral dosing. The format is in vivo, Wistar rats. An excerpt:
Compound No.30 of U.S. Pat. […] Vehicle treated controls were maintained using identical experimental conditions. The treated as well as control rats were sacrificed 24 hr after the last dose. One parameter measured was the spleen to body weight ratio and thymus to body weight ratio in treated versus control animals. The spleen and thymus were trimmed free of fat and other contiguous organs/tissues and were weighed in an analytical balance (Sartorious BP 210). The spleen to terminal body weight ratio and the thymus to terminal body weights ratio was calculated to provide the respective relative weights. The ratio value of the respective relative weight of a treated animal versus the relative weight of a control animal is provided in Table 4. The myelosuppressive potential of a compound is inversely proportional to the ratio value. […] Values in each of the first two columns above represent ratio of relative weight (calculated organ to body weight ratio) of spleen or thymus in drug treated animals v/s control animals. […] The “[…]” column provides ratio of percentage reticulocytes in treated v/s percentage reticulocytes in control rats.

Data set [3] in a line: Pharmacokinetic study, single oral dose in beagle dog. The data set is classed as in vivo. As to conditions: serum, single oral dose 5 mg/kg p.o., Compound No. 4 and linezolid in 5% Tween, other compounds in cyclodextrin; for AUC(0-t): read-out: AUC (0-24 hr); for concentration at 12 hr: read-out: C-12 hr. As for the experimental part: Oral (5 mg/kg) and intravenous (5 mg/kg bolus) pharmacokinetic studies were done in dog. Blood samples were collected at time points of 0, 0.08 (not for oral), 0.25, 0.50, 1.0, 1.5, 2.0, 3.0, 4.0, 5.0, 6.0, 8.0, 10.0, 12.0 and 24.0 hours. To facilitate i.v. dosing and collection of blood samples, the dogs were implanted with cannula in cephalic vein. Serum obtained from blood samples was used for HPLC-based analysis.
Serum samples were extracted by solid phase extraction technique using Water's OASIS HLB cartridges. An HPLC-Diode array detection system was used for analysis. Prepared samples were chromatographed on a YMC-AM reversed phase column (150×4.6 mm ID; 5 μm) using an isocratic mobile phase acetate buffer (50 mmol ammonium acetate pH 6.6) acetonitrile, 66:34% v/v (for a representative compound of the invention, 68:32% v/v for compound Nos. 30, 3, 7 and 11 of U.S. Pat. No. 5,668,286, and 75:25% v/v for linezolid) at a flow rate of 1 ml/min, measured at λmax 254 nm. Independently prepared analytical standards and quality control samples were analyzed with each set of unknown samples.
The pharmacokinetics of a representative compound of the invention following single oral dose administration of the compound in beagle dog is shown in Table 2.

Setting [4] is: Wistar rats, oral, 14 consecutive days, 50 mg/kg per day (LNZ 2×25 mg/kg per day), ratio less than 0.75 indicates myelosuppressive potential.

Regarding `CC(=O)NC[C@H]1CN(c2ccc(N3CCOCC3)c(F)c2)C(=O)O1` [Linezolid], the MIC in data set [1] was determined as 2 µg/mL (≈ 5.93 µM). Moreover, in data set [2] (setting [4]), the “Relative Weights Ratio Spleen (spleen weight/body weight of treated animal versus control animal)” value was determined as 0.46 and the “Relative Weights Ratio Thymus (thymus weight/body weight of treated animal versus control animal)” value was 0.46. Moreover, in data set [3], the half-life was 2.42 ± 0.17 h, the AUC(0-t) is 22800 ± 2170 ng·h/mL, the Cmax turned out to be 5700 ± 690 ng/mL and the concentration at 12 hr was 0 ng/mL.
On to `CC(=O)NC[C@H]1CN(c2ccc(N3CCC(CC#N)CC3)c(F)c2)C(=O)O1` [Compound 4, (S)-N-{3-[4-(4-cyanomethyl-piperidin-1-yl)-3-fluoro-phenyl]-2-oxo-oxazolidin-5-ylmethyl}-acetamide], for which the MIC in data set [1] came out at 2 µg/mL (≈ 5.34 µM). The “myelosuppressive potential (in words)” value in data set [2] (rat, in vivo) was “no or lower myelosuppressive potential”. Besides, in data set [3], the half-life was 10.8 ± 2.45 h, the AUC(0-t) came to 71560 ± 250 ng·h/mL, the peak level (Cmax) was 5660 ± 1490 ng/mL and the concentration at 12 hr was 2840 ± 170 ng/mL.
